Target: T1, histamine H3 receptor (hH3R 445) (Homo sapiens, UniProt Q9Y5N1)
T1 construct: gene HRH3; hH3 445 isoform (also hH3 365), transiently expressed in HEK293 cells
Assay: [3H]GSK189254 saturation radioligand binding; autoradiography on human brain sections

T1 sequence (Q9Y5N1 whole entry, canonical isoform): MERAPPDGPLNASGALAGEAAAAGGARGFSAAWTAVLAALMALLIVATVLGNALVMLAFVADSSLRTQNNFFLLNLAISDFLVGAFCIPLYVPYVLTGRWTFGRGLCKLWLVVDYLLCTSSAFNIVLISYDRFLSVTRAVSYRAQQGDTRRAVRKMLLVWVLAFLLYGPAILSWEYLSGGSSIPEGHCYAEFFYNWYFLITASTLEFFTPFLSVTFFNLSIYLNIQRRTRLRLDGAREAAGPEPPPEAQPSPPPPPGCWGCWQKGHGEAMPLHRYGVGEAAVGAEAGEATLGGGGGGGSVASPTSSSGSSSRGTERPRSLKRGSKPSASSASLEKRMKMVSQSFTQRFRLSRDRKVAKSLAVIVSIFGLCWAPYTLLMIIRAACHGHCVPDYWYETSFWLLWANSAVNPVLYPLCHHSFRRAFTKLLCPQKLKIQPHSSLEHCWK

Kd: 0.16 ± 0.04 nM
Structure (SMILES): CNC(=O)c1ccc(Oc2ccc3c(c2)CCN(C2CCC2)CC3)nc1 [GSK189254]

— article PMC5113906, “Ligand autoradiographical quantification of histamine H3 receptor in human dementia with Lewy bodies” (Pharmacological Research, 2016)
